Patent US20230103142A1, “SMALL MOLECULE REGULATORS OF NOTCH1 AND USES THEREOF” (THE PENN STATE RESEARCH FOUNDATION, priority 2020, published 2023)
Residues, ends and D or L forms follow the SMILES beside them. *: point of attachment. Cbz = O=C(OCc1ccccc1)*

Columns and labels:
[1] = test system: Notch 1 activation in MDA-MB-231 TNBC cells; test: Western blot of NICD and HES1; assay type: cell-based; conditions: vs vehicle treated controls
[2] = test system: MDA-MB-231 TNBC cells; test: cell viability assay; assay type: cell-based; conditions: 1/20th of IC50 of DOX alone
Procedure: Synergistic effects of combinations were calculated via isobologram analysis.

[3] = test system: ubiquitin in ALDH+ cells; test: ubiquitin expression; assay type: cell-based
Excerpt: Commercially available positive and negative controls were used for these experiments.

[4] = test system: HT1376 cells; test: Annexin V-FITC/PI apoptosis flow cytometry; assay type: cell-based; conditions: HT1376, 24 h treatment
Procedure: (§1) Detection of apoptosis by flow cytometry and immunoblotting. Annexin V-fluorescein isothiocyanate (FITC) against propidium iodide (PI) assay (FITC Annexin V Apoptosis Detection Kit I, BD Pharminogen, San Diego, Calif., USA) was used for detecting apoptosis as described previously. Total protein extracts from TCCSUP cells were prepared with the Mammalian Protein Extraction Reagent (Thermo Scientific, Rockford, Ill., USA) according to the manufacturer's instructions. Western blotting was performed using specific antibodies against Cleaved PARP (Cat #5625), BAX (Cat #5023) (Cell signaling Technology), and β-actin (Santa Cruz Biotechnologies, Dallas, Tex., USA). The positive bands were detected using enhanced chemiluminescence.

[5] = test system: TCCSUP cells; test: Annexin V-FITC/PI apoptosis flow cytometry; assay type: cell-based; conditions: 24 h treatment
Procedure: as §1

[6] = test system: normal BCa cells; test: toxicity to normal cells; assay type: cell-based
[7] = target: CPEB1 (Homo sapiens, UniProt Q9BZB8); test: scanning fluorimetry with purified CPEB1 protein; assay type: binding
Chain of CPEB1 (Q9BZB8 whole entry): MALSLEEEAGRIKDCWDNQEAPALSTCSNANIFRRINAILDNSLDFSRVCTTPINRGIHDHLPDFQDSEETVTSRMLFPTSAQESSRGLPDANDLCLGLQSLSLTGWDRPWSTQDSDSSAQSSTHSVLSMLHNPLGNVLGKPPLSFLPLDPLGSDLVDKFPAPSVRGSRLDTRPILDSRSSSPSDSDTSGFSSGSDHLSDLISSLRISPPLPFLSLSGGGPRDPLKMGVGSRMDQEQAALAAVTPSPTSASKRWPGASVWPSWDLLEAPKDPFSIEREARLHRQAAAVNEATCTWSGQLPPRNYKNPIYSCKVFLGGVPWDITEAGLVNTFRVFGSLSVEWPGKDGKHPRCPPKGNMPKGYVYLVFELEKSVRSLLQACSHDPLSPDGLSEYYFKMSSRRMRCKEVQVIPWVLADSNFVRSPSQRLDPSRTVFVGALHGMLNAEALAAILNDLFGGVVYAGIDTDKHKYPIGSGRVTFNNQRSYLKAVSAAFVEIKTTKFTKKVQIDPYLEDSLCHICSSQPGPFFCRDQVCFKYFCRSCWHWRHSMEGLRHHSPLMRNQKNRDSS
Excerpt: (FIG. 9B) ASR488 treatment induces p53 independent p27 upregulation in Bladder Cancer cells. (FIG. 9C) The result is GO/G1 cell cycle arrest in ASR488 treated Bladder Cancer Cells. (FIG. 9D) p27 upregulation is due to CPEB1 induction by overexpressing CPEB1 in TCCSUP cells.

[8] = test system: TCCSUP cells; test: RNA-seq differential gene expression analysis; assay type: cell-based
Excerpt: RNA isolation, cDNA library construction, and DNA sequencing. TCCSUP cells treated with vehicle (DMSO) or ASR488 were subjected to RNA isolation using TRIzol® (Invitrogen; Thermo Fisher Scientific, Inc., Waltham, Mass., USA) according to the manufacturer's protocol. Nano Photometer® spectrophotometer (Implen, Inc., Westlake Village, Calif., USA) was used to measure the RNA concentration and purity of the samples. A cDNA library was then constructed using an NEB Next® Ultra™ RNA Library Prep kit for Illumina® (New England Biolabs, Inc., Ipswich, Mass., USA) by Novogene Bioinformatics Technologies Co. Ltd. (Beijing, China) following the manufacturer's protocols. Subsequently, polymerase chain reaction (PCR) was, Universal PCR primers, and Index (X) Primer for double-stranded cDNA amplification. The PCR products generated for PCR performed using Phusion High Fidelity DNA polymerase were purified using the AMPure XP system, and Agilent Bioanalyzer 2100 system was used to analyze the library quality. The cDNA library was sequenced using an Illumina Hiseq 2000/2500 platform and 100 bp/50 bp single-end reads were generated.
Data Analysis. Bioinformatics analysis was performed using a combination of programs including STAR, HTseq, Cufflink, and our wrapped scripts. Tophat program was used to parse the alignments and DESeq2/edgeR was utilized to ascertain differential expressions. To determine GO and KEGG enrichment Cluster Profiler was used.
For DESeq2 with biological replicates: DESeq2 R package (2_1.6.3) was used to analyze differential expression between the ASR488 treated and control groups (two biological replicates per condition). The p-values obtained from the analysis were adjusted using the Benjamini and Hochberg's approach so that the false discovery rate (FDR) can be controlled. The genes having adjusted p-value <0.05 were assigned as differentially expressed.
For edge R without biological replicates: EdgeR program package (3.16.5) was used to adjust the read counts for each sequenced library before differential gene expression analysis, through one scaling normalized factor. The p-values were adjusted using the Benjamini and Hochberg method. […] The Venn diagrams were prepared using the function Venn diagram in R based on the gene list for different groups.

[9] = test system: CPEB1 knockdown TCCSUP cells; test: cell death in CPEB1 siRNA knockdown cells; assay type: cell-based
Excerpt: To analyze whether ASR488 treatment can induce p27 mediated cell death in CPEB1 knockdown bladder cancer cells, we knocked down CPEB1 with SiRNA in TCCSUP cells. (FIG. 11A) ASR488 treatment was unable to restore CPEB1 expression in CPEB1 knockdown cells. Moreover, P27 expression corresponded with CPEB1 expression pattern in the Knockdown cells.

[10] = test system: TCCSUP cells; test: qRT-PCR of top upregulated genes; assay type: cell-based; conditions: vs vehicle (DMSO)
Excerpt: The blue dots represent the genes that are without any significant diversity. […] The sum of the numbers in each large circle are the total number of genes in ASR488-treated or vehicle-treated TCCSUP cells, and the common genes among the samples are represented in the overlapping part.

[11] = test system: HT1376 cells; test: MTT cell viability assay; assay type: cell-based
Procedure: (§2) Cell culture and viability assay. […] Cell lines were maintained in Eagle's Minimum Essential Medium at 37° C. and 5% CO2. […] TCCSUP and HT1376 cells were treated with varying concentrations of ASR488 (0.2-12.5 μM) for 24, 48, and 72 h.

[12] = test system: TCCSUP cells; test: MTT cell viability assay; assay type: cell-based
Procedure: as §2

Compound: COc1cccc2c1C(=O)c1c(O)c3c(c(O)c1C2=O)C[C@@](O)(C(=O)CO)C[C@@H]3O[C@H]1C[C@H](N)[C@H](O)[C@H](C)O1 [DOX, Doxorubicin, reference compound]
- Notch 1 activation (NICD and HES 1 levels) [1]: induction of Notch 1 activation
- growth inhibition alone [2]: did not inhibit the growth

Compound: CC(C)C[C@@H](C=O)NC(=O)[C@H](CC(C)C)NC(=O)[C@H](CC(C)C)NC(=O)OCc1ccccc1 [MG-132, reference compound] (Cbz-Leu-Leu-Leu-aldehyde)
- ubiquitin expression [3]: higher level of ubiquitin

Compound: CC1=C(CO)C(=O)O[C@@H]([C@@H](C)[C@H]2CC[C@H]3[C@@H]4C[C@H]5O[C@]56[C@@H](OC(=O)c5cccs5)C=CC(=O)[C@]6(C)[C@H]4CC[C@]23C)C1 [ASR488]
- apoptosis [4]: 23.2%
- apoptosis [5]: 30.5%
- toxicity to normal cells [6]: non-toxic
- change of Tm of bound CPEB1 [7]: 9 °C
- Log2 (fold-change) ACTG2 ([8]; gene ACTG2, treated TCCSUP cells): 3.0293
- Log2 (fold-change) BBOX1 ([8]; gene BBOX1, treated TCCSUP cells): −2.2384
- Log2 (fold-change) CMPK2 ([8]; gene CMPK2, treated TCCSUP cells): −1.8470
- Log2 (fold-change) CPEB1 ([8]; gene CPEB1, treated TCCSUP cells): 6.3347
- Log2 (fold-change) CYP4F11 ([8]; gene CYP4F11, treated TCCSUP cells): 8.3568
- Log2 (fold-change) DDX60 ([8]; gene DDX60, treated TCCSUP cells): −2.5069
- Log2 (fold-change) FOS ([8]; gene FOS, treated TCCSUP cells): −1.9465
- Log2 (fold-change) GBP4 ([8]; gene GBP4, treated TCCSUP cells): −2.2704
- Log2 (fold-change) GNGT2 ([8]; gene GNGT2, treated TCCSUP cells): 2.5802
- Log2 (fold-change) HSPA6 ([8]; gene HSPA6, treated TCCSUP cells): 3.5985
- Log2 (fold-change) IFI44L ([8]; gene IFI44L, treated TCCSUP cells): −1.9791
- Log2 (fold-change) IFIT2 ([8]; gene IFIT2, treated TCCSUP cells): −1.8473
- Log2 (fold-change) IL11 ([8]; gene IL11, treated TCCSUP cells): 2.9265
- Log2 (fold-change) MAP1A ([8]; gene MAP1A, treated TCCSUP cells): 2.1205
- Log2 (fold-change) OASL ([8]; gene OASL, treated TCCSUP cells): −1.9737
- Log2 (fold-change) RSAD2 ([8]; gene RSAD2, treated TCCSUP cells): −2.2235
- Log2 (fold-change) SFN ([8]; gene SFN, treated TCCSUP cells): 3.7239
- Log2 (fold-change) SPHK1 ([8]; gene SPHK1, treated TCCSUP cells): 4.6389
- Log2 (fold-change) STEAP4 ([8]; gene STEAP4, treated TCCSUP cells): −1.8141
- Log2 (fold-change) TAGLN ([8]; gene TAGLN, treated TCCSUP cells): 2.3661
- cell death in CPEB1 knockdown cells [9]: did not induced cell death
- CPEB1 upregulation by qRT-PCR [10]: 36 fold
- CYP4F11 upregulation by qRT-PCR [10]: 15.8 fold
- IL11 upregulation by qRT-PCR [10]: 30 fold
- SFN upregulation by qRT-PCR [10]: 20.12 fold
- IC50 ([11]; HT1376, 24 h): 1280 nM
- IC50 ([11]; HT1376, 48 h): 750 nM
- IC50 ([11]; HT1376, 72 h): 850 nM
- IC50 ([12]; 24 h): 800 nM
- IC50 ([12]; 48 h): 480 nM
- IC50 ([12]; 72 h): 450 nM
